Results reported in patent US6436428B1, “Device and method for treating urinary incontinence in females” (Enhance Pharmaceuticals, Inc., priority 2000, dated 2002).

Columns and labels:
[1] = oral administration of oxybutynin; cited from earlier work
[2] = Plasma oxybutynin and desethyloxybutynin in rabbits with vaginal inserts; format: in vivo, rabbit; settings: for plasma concentration: days 1-7; for plasma values at all time periods (day 1-7): 5.0 mg/day vaginal insert
Experimental: 12 rabbits were separated into 4 groups of 3 rabbits each. Under pentobarbital anesthesia (25 mg/kg, iv) A cylinder-shaped, curved silastic insert was placed in the vagina of each rabbit. This was accomplished by the following: a midline laparotomy was performed and after transvaginal insertion the implant was anchored with a single 2.0 silk suture through the outer vaginal wall and knotted to a 1 cm section of a medical-grade tubing to avoid damage to the vaginal wall. The inserts in group one contained vehicle, the inserts in groups 2-4 were calculated to release oxybutynin at rates of 0.5 mg/day; 1 mg/day; and 5 mg/day respectively. The inserts remained in place for 7 days. Samples of blood (2 ml) were collected at 12:00 noon on days 1, 3, 5 and 7. After the last blood sample was obtained, each rabbit was sedated and cystometries were performed. Immediately after the cystometry, the rabbit was euthanized, the lower urinary tract including the vagina was removed and evaluated for irritation. In addition, the bladder was excised and weighed.
The samples of blood were frozen and subsequently analyzed. The oxybutynin and desethyloxybutynin concentrations were quantified.

Structure (SMILES)	AUC (area under the plasma time concentration curve) of the metabolite relative to oxybutynin [1]	peak blood concentration of the metabolite relative to oxybutynin [1]	plasma concentration ([2]; 0.5 mg/day vaginal insert)	plasma concentration ([2]; 1.0 mg/day vaginal insert)	plasma values at all time periods (day 1-7) [2]	change of plasma concentration between day 1 and 3 ([2]; 0.5 mg/day vaginal insert)	plasma concentration course between days 3 and 7 ([2]; 0.5 mg/day vaginal insert)	change of plasma concentration between day 1 and 3 ([2]; 1.0 mg/day vaginal insert)	plasma concentration course between days 3 and 7 ([2]; 1.0 mg/day vaginal insert)	stable plasma concentration of 1.0 mg/day group relative to 0.5 mg/day group ([2]; vaginal inserts, FIG. 18)	stable plasma concentration of 5.0 mg/day group relative to 1.0 mg/day group ([2]; vaginal inserts, FIG. 18)
CCNCC#CCOC(=O)C(O)(c1ccccc1)C1CCCCC1 (stereo not drawn) [N-desethyloxybutynin]	10-12 times	6-9 times higher	below the level of detection	below the level of detection	stable plasma values	–	–	–	–	–	–
CCN(CC)CC#CCOC(=O)C(O)(c1ccccc1)C1CCCCC1 (stereo not drawn) [oxybutynin, 4-diethylamino-2-butynylphenylcyclohexylglycolate]	–	–	–	–	stable plasma values	increase	stable concentration	increase	stable concentration	approximately twice	approximately 4 fold
